Results as given in ChEMBL document CHEMBL6127124, “Structure-Activity Relationships and Discovery of (S)-5-(tert-Butyl)-11-(difluoromethoxy)-9-methoxy-2-oxo-1,2,5,6-tetrahydropyrido[2',1':2,3]imidazo[4,5-h]quinoline-3-carboxylic Acid (AB-161), a Novel Orally Available and Liver-Centric HBV RNA Destabilizer” (J Med Chem, 2024).

How the values were obtained:
[1] = Ratio of total drug concentration in liver to plasma in CD-1 mouse at 10 mg/kg, po measured for 24 hrs by LC-MS/MS analysis; type: ADME, organism-based; details: CD-1, mouse, liver and plasma
Hepatitis B virus [2] = experiment: Antiviral activity against HBV infected in human HepG2.2.15 cells assessed as reduction in HBsAg level incubated for 6 days with media and compound replenishment on third day by CLIA; type: functional, organism-based; details: HepG2.2.15, 144 h; for EC90: time 6 day
[3] = Oral bioavailability in CD-1 mouse at 10 mg/kg measured for 24 hrs by LC-MS/MS analysis; type: ADME, organism-based; details: in vivo
[4] = Metabolic stability in human liver microsomes assessed as clearance at 0.3 uM preincubated for 5 mins followed by NADPH addition measured upto 60 mins by LC-MS/MS analysis; type: ADME, Microsome; details: time < 65 min, read-out: CLH
[5] = Chemical stability of compound in PBS assessed as compound remaining measured after 6 days by HPLC UV analysis; type: physicochemical; details: buffer, 144 h; time 6 day
[6] = AUC (0 to 24 hrs) in CD-1 mouse at 10 mg/kg, po measured for 24 hrs by LC-MS/MS analysis; type: ADME, organism-based; details: in vivo
[7] = Selectivity ratio of drug concentration in liver in CD-1 mouse at 10 mg/kg, po measured for 24 hrs to EC90 for antiviral activity against HBV infected in human HepG2.2.15 cells assessed as reduction in HBsAg level; type: ADME, organism-based; details: in vivo
[8] = Metabolic stability in CD-1 mouse liver microsomes assessed as clearance at 0.3 uM preincubated for 5 mins followed by NADPH addition measured upto 60 mins by LC-MS/MS analysis; type: ADME, Microsome; details: time < 65 min, read-out: CLH
[9] = Cytotoxicity in human HepG2.2.15 cells by Cell Titer-Glo assay; type: toxicity, cell-based, HepG2 2.2.15
[10] = Selectivity ratio of drug concentration in liver in Sprague-Dawley rat at 5 mg/kg, po measured for 24 hrs to EC90 for antiviral activity against HBV infected in human HepG2.2.15 cells assessed as reduction in HBsAg level; type: ADME, organism-based; details: in vivo
[11] = Oral bioavailability in Sprague-Dawley rat at 5 mg/kg measured for 24 hrs by LC-MS/MS analysis; type: ADME, organism-based; details: in vivo
[12] = AUC (0 to 24 hrs) in Sprague-Dawley rat at 5 mg/kg, po measured for 24 hrs by LC-MS/MS analysis; type: ADME, organism-based; details: in vivo
[13] = Ratio of total drug concentration in liver to plasma in Sprague-Dawley rat at 5 mg/kg, po measured for 24 hrs by LC-MS/MS analysis; type: ADME, organism-based; details: other tissue
[14] = Metabolic stability in Sprague-Dawley rat liver microsomes assessed as clearance at 0.3 uM preincubated for 5 mins followed by NADPH addition measured upto 60 mins by LC-MS/MS analysis; type: ADME, Microsome; details: time < 65 min, read-out: CLH
Hepatitis B virus [15] = experiment: Antiviral activity against HBV genotype D in immuno-competent C57BL/6 mouse model of chronic HBV assessed as log10 reduction in HBsAg production at 10 mg/kg, po qd for 7 days measured 24 hrs post-last dose by EIA relative to control; type: functional; details: time 8 day
Hepatitis B virus [16] = experiment: Antiviral activity against HBV genotype D in immuno-competent C57BL/6 mouse model of chronic HBV assessed as log10 reduction in HBsAg production at 3 mg/kg, po qd for 7 days measured 24 hrs post-last dose by EIA relative to control; type: functional; details: time 8 day
[17] = Ratio of total drug concentration in liver to plasma in CD-1 mouse at 0.2 mg/kg, po measured for 12 hrs by LC-MS/MS analysis; type: ADME, organism-based; details: liver and plasma
[18] = Selectivity ratio of drug concentration in liver in CD-1 mouse at 0.2 mg/kg, po measured for 12 hrs to EC90 for antiviral activity against HBV infected in human HepG2.2.15 cells assessed as reduction in HBsAg level; type: ADME, organism-based; details: in vivo
[19] = Selectivity ratio of drug concentration in liver in CD-1 mouse at 10 mg/kg, po measured for 12 hrs to EC90 for antiviral activity against HBV infected in human HepG2.2.15 cells assessed as reduction in HBsAg level; type: ADME, organism-based; details: in vivo
[20] = Selectivity ratio of drug concentration in liver in CD-1 mouse at 0.2 mg/kg, po measured for 24 hrs to EC90 for antiviral activity against HBV infected in human HepG2.2.15 cells assessed as reduction in HBsAg level; type: ADME, organism-based; details: in vivo
[21] = Ratio of total drug concentration in liver to plasma in CD-1 mouse at 0.2 mg/kg, po measured for 24 hrs by LC-MS/MS analysis; type: ADME, organism-based
[22] = Ratio of total drug concentration in liver to plasma in CD-1 mouse at 10 mg/kg, po measured for 12 hrs by LC-MS/MS analysis; type: ADME, organism-based; details: liver and plasma
[23] = AUC (0 to 24 hrs) in CD-1 mouse at 0.2 mg/kg, po measured for 24 hrs by LC-MS/MS analysis; type: ADME, organism-based; details: in vivo
Hepatitis B virus [24] = experiment: Antiviral activity against HBV genotype D in immuno-competent C57BL/6 mouse model of chronic HBV assessed as log10 reduction in HBsAg production at 3 mg/kg, po qd for 7 days measured 24 hrs post-last dose by EIA (reference value: 0.67); type: functional; details: time 8 day
Hepatitis B virus [25] = experiment: Antiviral activity against HBV genotype D in immuno-competent C57BL/6 mouse model of chronic HBV assessed as log10 reduction in HBsAg production at 10 mg/kg, po qd for 7 days measured 24 hrs post-last dose by EIA (reference value: 0.98); type: functional; details: time 8 day

Work on COCCCOc1cc2c(nc1OC)-c1[nH]c(=O)c(C(=O)O)c(O)c1[C@H](C(C)(C)C)C2 yielded a Kp at 24 h [1] of 1.3, an EC50 (Hepatitis B virus [2]) of 0.0011 µM and an EC90 (Hepatitis B virus [2]) of 0.013 µM. For the same compound, the bioavailability [3] was 93%, the microsomal CLint at 0.3 µM [4] was 57 µL/min/mg and the Stability [5] was “Unstable”. It also gave an AUC(0-t) at 24 h [6] of 4.94 µg·h/mL, a Ratio [7] of 4.6 and a microsomal CLint at 0.3 µM [8] of 12 µL/min/mg. The CC50 [9] was 26 µM.

In the case of CC(C)(C)[C@@H]1Cc2c(nc3c(OC(F)F)cccn23)-c2[nH]c(=O)c(C(=O)O)c(O)c21, the Kp at 24 h [1] is reported as 308, the EC50 (Hepatitis B virus [2]) is reported as 0.0015 µM and the EC90 (Hepatitis B virus [2]) is reported as 0.014 µM. For the same compound, the bioavailability [3] was 27%, the Ratio [10] was 1008 and the bioavailability [11] was 16%. The microsomal CLint at 0.3 µM [4] was 6 µL/min/mg, the Stability [5] was “Unstable” and the AUC(0-t) at 24 h [6] was 0.989 µg·h/mL. For the same compound, the Ratio [7] was 92, the microsomal CLint at 0.3 µM [8] was 64 µL/min/mg and the AUC(0-t) at 24 h [12] was 0.209 µg·h/mL. It also gave a CC50 [9] of 36 µM, a Ratio [13] of 4397 and a microsomal CLint at 0.3 µM [14] of 279 µL/min/mg. The “log(activity)” value (Hepatitis B virus [15]) was 0.52 and the “log(activity)” value (Hepatitis B virus [16]) was 0.32.

CC(C)(C)[C@@H]1Cc2c(nc3c(C(F)F)cccn23)-c2[nH]c(=O)c(C(=O)O)cc21 gave an EC50 (Hepatitis B virus [2]) of 0.012 µM, an EC90 (Hepatitis B virus [2]) of 0.135 µM and a microsomal CLint at 0.3 µM [4] of 2 µL/min/mg. For the same compound, the microsomal CLint at 0.3 µM [8] was 11 µL/min/mg and the CC50 [9] was > 50 µM.

For CC(C)(C)[C@@H]1Cc2c(nc3c(OC(F)F)cc(OC(F)F)cn23)-c2[nH]c(=O)c(C(=O)O)cc21, the EC50 (Hepatitis B virus [2]) was 0.0079 µM, the EC90 (Hepatitis B virus [2]) was 0.007 µM and the CC50 [9] was > 50 µM.

Cc1cc(C(F)(F)F)c2nc3c(n2c1)CC(C(C)(C)C)c1cc(C(=O)O)c(=O)[nH]c1-3 (centres undefined) gave an EC50 (Hepatitis B virus [2]) of 0.0008 µM, an EC90 (Hepatitis B virus [2]) of 0.011 µM and a CC50 [9] of 47 µM.

COc1ccn2c3c(nc2c1OC(F)F)-c1[nH]c(=O)c(C(=O)O)cc1[C@H](C(C)(C)C)C3 gave a Kp at 24 h [1] of 19, an EC50 (Hepatitis B virus [2]) of 0.0035 µM and an EC90 (Hepatitis B virus [2]) of 0.049 µM. For the same compound, the Kp at 12 h [17] was 22, the microsomal CLint at 0.3 µM [4] was 4 µL/min/mg and the AUC(0-t) at 24 h [6] was 2.69 µg·h/mL. The Ratio [18] was 3, the Ratio [19] was 69 and the Ratio [7] was 1. For the same compound, the Ratio ([20]; BLD = below limit of detection) was “Bld”, the microsomal CLint at 0.3 µM [8] was 3 µL/min/mg and the CC50 [9] was > 50 µM. The Ratio ([21]; mouse, in vivo, po, 0.2 mg/kg, 24 h, BLD = below limit of detection) was “Bld”, the Kp at 12 h [22] was 24 and the microsomal CLint at 0.3 µM [14] was 5 µL/min/mg. The AUC(0-t) at 24 h [23] was 0.044 µg·h/mL.

With COc1ccn2c3c(nc2c1OC)-c1[nH]c(=O)c(C(=O)O)cc1[C@H](C(C)(C)C)C3 the Kp at 24 h [1] was 5, the EC50 (Hepatitis B virus [2]) was 0.0056 µM and the EC90 (Hepatitis B virus [2]) was 0.051 µM. For the same compound, the AUC(0-t) at 24 h [6] was 5.1 µg·h/mL, the Ratio [7] was 0.3 and the microsomal CLint at 0.3 µM [8] was 1 µL/min/mg. For the same compound, the CC50 [9] was > 50 µM.

For CC(C)(C)[C@@H]1Cc2c(nc3c(OC(F)F)cc(F)cn23)-c2[nH]c(=O)c(C(=O)O)cc21, the “log(activity)” value (Hepatitis B virus [24]) was 0.16, the Kp at 24 h [1] was 194 and the EC50 (Hepatitis B virus [2]) was 0.0037 µM. The EC90 (Hepatitis B virus [2]) was 0.054 µM, the Kp at 12 h [17] was 176 and the “log(activity)” value (Hepatitis B virus [25]) was 0.37. For the same compound, the microsomal CLint at 0.3 µM [4] was 1 µL/min/mg, the AUC(0-t) at 24 h [6] was 2.74 µg·h/mL and the Ratio [18] was 25. It also gave a Ratio [19] of 1080, a Ratio [7] of 203 and a Ratio [20] of 7. The microsomal CLint at 0.3 µM [8] was 3 µL/min/mg, the CC50 [9] was > 50 µM and the Kp at 24 h ([21]; CD-1, mouse, liver and plasma) was 101. For the same compound, the Kp at 12 h [22] was 105, the microsomal CLint at 0.3 µM [14] was 4 µL/min/mg and the AUC(0-t) at 24 h [23] was 0.067 µg·h/mL.
